Experimental data from ChEMBL document CHEMBL5120953, “Novel Macrocyclic 1,3,4-Oxadiazoles as CFTR Modulators for Treating Cystic Fibrosis” (ACS Med Chem Lett, 2022).

experiment: Modulation of CFTR F508 deletion/MF mutant in HBE cells assessed as change in short circuit current incubated for 18 to 24 hrs in presence of forskolin and amiloride by voltage-clamp based chamber assay; assay type: cell-based; settings: Homo sapiens

EC50, < 500 nM:
Nc1cc(C(F)(F)F)c2nc1-c1nnc(o1)[C@@](O)(C(F)(F)F)CCCCC[C@@H]1CCCN21
Nc1cc(S(=O)(=O)c2ccccc2)c2nc1-c1nnc(o1)[C@@](O)(C(F)(F)F)CCCCC[C@@H]1CCCN21
Nc1cc(Br)c2nc1-c1nnc(o1)[C@@](O)(C(F)(F)F)CCCCC[C@@H]1CCCN21
Nc1cc(C(F)(F)F)c2nc1-c1nnc(o1)[C@@](O)(C(F)(F)F)CCCCCC(c1ccccn1)N2 (stereo partly specified)
Nc1cc(C(F)(F)F)c2nc1-c1nnc(o1)[C@@](O)(C(F)(F)F)CCCCCC1(CCCCC1)N2
Nc1cc(C(F)(F)F)c2nc1-c1nnc(o1)[C@@](O)(C(F)(F)F)CCCCCC1(CCC1)N2
